This assay relates to BDF1 mice, P388 leukemia ip, median survival T/C. In words: NCI In Vivo Anticancer Drug Screen. Data for tumor model P388 Leukemia (intraperitoneal) in B6D2F1 (BDF1) mice. The conditions noted are these: endpoint: median survival time, higher = longer survival. The method in brief:
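Transplantable tumour in mice; compound vs vehicle dosing; survival scored; ratio of treated to control reported.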

Setting [1] is: dose: 25.0 mg/kg/injection, schedule: Q01DX009 (ip), vehicle: saline with Tween-80.
Where [2] appears, read: dose: 50.0 mg/kg/injection, schedule: Q01DX009 (ip), vehicle: saline with Tween-80.
[3] abbreviates: dose: 100.0 mg/kg/injection, schedule: Q01DX009 (ip), vehicle: saline with Tween-80.
Where [4] appears, read: dose: 200.0 mg/kg/injection, schedule: Q01DX009 (ip), vehicle: saline with Tween-80.
Where [5] appears, read: dose: 50.0 mg/kg/injection, schedule: Q01DX009 (ip), vehicle: Klucel (hydroxypropylcellulose) (HPC).
The mark [6] stands for this setting: dose: 100.0 mg/kg/injection, schedule: Q01DX009 (ip), vehicle: Klucel (hydroxypropylcellulose) (HPC).
[7] abbreviates: dose: 200.0 mg/kg/injection, schedule: Q01DX009 (ip), vehicle: Klucel (hydroxypropylcellulose) (HPC).

Where “and” joins values, the source holds several entries; their conditions need not be identical. Equal values may be shown once. Toxic doses and inconclusive results are not listed. Residues, ends and D or L forms follow the SMILES beside them.

Regarding `COc1cc(CCC(NC(C)=O)c2cccc(O)c(=O)c2)cc(OC)c1OC` (stereo not drawn), the T/C runs as follows: under setting [1], 90 % of control; under setting [2], 96 % of control; under setting [3], 90 % of control; under setting [4], 91 % of control.
For `CC1NNC(=O)C1(Br)Br` (stereo not drawn), the T/C by setting is: (dose: 1.56 mg/kg/injection, schedule: Q01DX009 (ip), vehicle: gum acacia) 113 % of control; (dose: 3.12 mg/kg/injection, schedule: Q01DX009 (ip), vehicle: gum acacia) 113 % of control; (dose: 6.25 mg/kg/injection, schedule: Q01DX009 (ip), vehicle: gum acacia) 94 % of control.
As for `CC(=O)Nc1ccc2c(Nc3ccc(NS(C)(=O)=O)cc3)c3ccccc3nc2c1`, the T/C is, setting by setting: (dose: 0.73 mg/kg/injection, schedule: Q01DX009 (ip), vehicle: saline) 254 % of control; (dose: 0.88 mg/kg/injection, schedule: Q04DX003 (ip), vehicle: saline) 163 % of control; (dose: 1.1 mg/kg/injection, schedule: Q01DX009 (ip), vehicle: saline) 260 % of control; (dose: 1.32 mg/kg/injection, schedule: Q04DX003 (ip), vehicle: saline) 195 % of control; (dose: 1.65 mg/kg/injection, schedule: Q01DX009 (ip), vehicle: saline) 260 % of control; (dose: 2.0 mg/kg/injection, schedule: Q04DX003 (ip), vehicle: saline) 200 % of control. The T/C was 252 % of control and 262 % of control (dose: 2.5 mg/kg/injection, schedule: Q01DX009 (ip), vehicle: saline); 195 % of control (dose: 3.0 mg/kg/injection, schedule: Q04DX003 (ip), vehicle: saline); 92 % of control (dose: 5.0 mg/kg/injection, schedule: Q01DX009 (ip), vehicle: saline); 250 % of control (dose: 5.56 mg/kg/injection, schedule: Q04DX003 (ip), vehicle: saline); 236 % of control (dose: 5.6 mg/kg/injection, schedule: Q04DX003 (ip), vehicle: saline); 281 % of control (dose: 8.3 mg/kg/injection, schedule: Q04DX003 (ip), vehicle: saline). In addition, the T/C (dose: 8.33 mg/kg/injection, schedule: Q04DX003 (ip), vehicle: saline) is 250 % of control; the T/C (dose: 12.5 mg/kg/injection, schedule: Q04DX003 (ip), vehicle: saline) was 250 % of control and 272 % of control and 281 % of control; the T/C (dose: 18.7 mg/kg/injection, schedule: Q04DX003 (ip), vehicle: saline) was 250 % of control and 277 % of control; the T/C (dose: 25.0 mg/kg/injection, schedule: Q04DX003 (ip), vehicle: saline) is 122 % of control; the T/C (dose: 18.0 micrograms/kg/injection, schedule: Q04DX003 (ip), vehicle: saline) is 104 % of control; the T/C (dose: 27.0 micrograms/kg/injection, schedule: Q04DX003 (ip), vehicle: saline) was 109 % of control. Also, for the setting “dose: 40.0 micrograms/kg/injection, schedule: Q04DX003 (ip), vehicle: saline”, the T/C was 113 % of control.
For `S=c1[nH]nc2ccccn12`, the T/C under setting [2] was 102 % of control, the T/C under setting [3] was 100 % of control and the T/C under setting [4] is 102 % of control.
In the case of `COc1cc2c(cc1O)C(=O)CCC(C(=O)O)=C2`, the T/C under setting [1] is 106 % of control, the T/C under setting [2] was 111 % of control and the T/C under setting [3] is 101 % of control.
On to `CC1(C)CCC(=O)O1`, for which the T/C was 104 % of control (dose: 25.0 mg/kg/injection, schedule: Q01DX009 (ip), vehicle: water); 104 % of control (dose: 50.0 mg/kg/injection, schedule: Q01DX009 (ip), vehicle: water); 91 % of control (dose: 100.0 mg/kg/injection, schedule: Q01DX009 (ip), vehicle: water); 103 % of control (dose: 200.0 mg/kg/injection, schedule: Q01DX009 (ip), vehicle: water); 91 % of control (dose: 400.0 mg/kg/injection, schedule: Q01DX009 (ip), vehicle: water).
On to `CC1=CC2=NC(=O)C(c3ccccc3)C(=O)N2C=C1` (stereo not drawn), for which the T/C reads like this: (dose: 25.0 mg/kg/injection, schedule: Q01DX009 (ip), vehicle: Klucel (hydroxypropylcellulose) (HPC)) 100 % of control; (dose: 25.0 mg/kg/injection, schedule: Q04DX003 (ip), vehicle: Klucel (hydroxypropylcellulose) (HPC)) 100 % of control; under setting [5], 105 % of control; (dose: 50.0 mg/kg/injection, schedule: Q04DX003 (ip), vehicle: Klucel (hydroxypropylcellulose) (HPC)) 100 % of control; under setting [6], 115 % of control; (dose: 100.0 mg/kg/injection, schedule: Q04DX003 (ip), vehicle: Klucel (hydroxypropylcellulose) (HPC)) 100 % of control. Moreover, under “dose: 400.0 mg/kg/injection, schedule: Q04DX003 (ip), vehicle: Klucel (hydroxypropylcellulose) (HPC)”, the T/C was 88 % of control.
Consider `NC(Cc1c[nH]c2ccc(N(CCCl)CCCl)cc12)C(=O)O` (stereo not drawn), for which the T/C runs as follows: (dose: 0.5 mg/kg/injection, schedule: Q01DX010 (ip), vehicle: saline) 218 % of control; (dose: 1.0 mg/kg/injection, schedule: Q01DX010 (ip), vehicle: saline) 290 % of control.
In the case of `O=C(Nc1ccccc1F)C12CC3CC(CC(C3)C1)C2`, the T/C under setting [2] is 92 % of control, the T/C under setting [3] was 96 % of control and the T/C under setting [4] was 96 % of control.
Take `COC1=CC(=O)CC(C)C12Oc1c(Cl)c(OC)cc(OC)c1C2=O` (stereo not drawn): the T/C under setting [6] is 100 % of control; the T/C under setting [3] is 100 % of control; the T/C under setting [7] was 109 % of control; the T/C under setting [4] is 100 % of control; the T/C (dose: 400.0 mg/kg/injection, schedule: Q01DX009 (ip), vehicle: Klucel (hydroxypropylcellulose) (HPC)) is 100 % of control; the T/C (dose: 400.0 mg/kg/injection, schedule: Q01DX009 (ip), vehicle: saline with Tween-80) was 109 % of control.
For `CC(=O)C1C(=O)C(=O)OC1C` (stereo not drawn), the T/C under setting [5] is 109 % of control; the T/C under setting [6] is 95 % of control; the T/C (dose: 100.0 mg/kg/injection, schedule: Q04DX003 (ip), vehicle: saline with Tween-80) was 113 % of control; the T/C under setting [7] is 90 % of control; the T/C (dose: 200.0 mg/kg/injection, schedule: Q04DX003 (ip), vehicle: saline with Tween-80) is 104 % of control.
`COc1ccc2c(c1)CCC(CC(C)=O)C2=O` (stereo not drawn): the T/C runs as follows: (dose: 100.0 mg/kg/injection, schedule: Q04DX003 (ip), vehicle: saline sonified) 104 % of control; (dose: 200.0 mg/kg/injection, schedule: Q04DX003 (ip), vehicle: saline sonified) 104 % of control; (dose: 400.0 mg/kg/injection, schedule: Q04DX003 (ip), vehicle: saline sonified) 104 % of control.
Consider `CC(C)C(NC(=O)C(NC(=O)C(CCCN=C(N)N)NC(=O)C(N)CCCCN)C(C)C)C(N)=O` (stereo not drawn) (H-KRVV-NH2; configuration not given here), for which the T/C (dose: 12.5 mg/kg/injection, schedule: Q04DX003 (ip), vehicle: water) was 101 % of control; the T/C (dose: 25.0 mg/kg/injection, schedule: Q04DX003 (ip), vehicle: water) was 97 % of control; the T/C (dose: 50.0 mg/kg/injection, schedule: Q04DX003 (ip), vehicle: water) is 107 % of control; the T/C (dose: 100.0 mg/kg/injection, schedule: Q04DX003 (ip), vehicle: water) was 92 % of control; the T/C (dose: 200.0 mg/kg/injection, schedule: Q04DX003 (ip), vehicle: water) is 93 % of control.
On to `NC(=O)SCC(N)C(=O)O` (stereo not drawn), for which the T/C was 115 % of control (dose: 50.0 mg/kg/injection, schedule: Q01DX009 (ip), vehicle: saline); 115 % of control (dose: 100.0 mg/kg/injection, schedule: Q01DX009 (ip), vehicle: saline); 118 % of control (dose: 200.0 mg/kg/injection, schedule: Q01DX009 (ip), vehicle: saline).
Take `CC(CCC(C)OS(C)(=O)=O)OS(C)(=O)=O` (stereo not drawn): the T/C reads like this: (dose: 2.0 mg/kg/injection, schedule: Q01DX010 (ip), vehicle: saline) 100 % of control; (dose: 4.0 mg/kg/injection, schedule: Q01DX010 (ip), vehicle: saline) 95 % of control; (dose: 8.0 mg/kg/injection, schedule: Q01DX010 (ip), vehicle: saline) 118 % of control; (dose: 16.0 mg/kg/injection, schedule: Q01DX010 (ip), vehicle: saline) 122 % of control.
As for `CCN1CCCC(Nc2cc(C)nc(Nc3nc4cc(Cl)c(Cl)cc4[nH]3)n2)C1` (stereo not drawn), the T/C by setting is: (dose: 1.56 mg/kg/injection, schedule: Q01DX009 (ip), vehicle: Klucel (hydroxypropylcellulose) (HPC)) 100 % of control; (dose: 3.12 mg/kg/injection, schedule: Q01DX009 (ip), vehicle: Klucel (hydroxypropylcellulose) (HPC)) 90 % of control; (dose: 6.25 mg/kg/injection, schedule: Q01DX009 (ip), vehicle: Klucel (hydroxypropylcellulose) (HPC)) 100 % of control.

The values are drawn from PubChem BioAssay AID328 (DTP/NCI, 2004).
